# Test system: Z. mobilis 8b
# Test: Furfural MIC for growth of Z. mobilis (plate screening levels given as MIC multiples)
# Type: cell-based
# Details: Zymomonas mobilis, 24 h, read-out: MIC 1× (minimum concentration of inhibitor needed for complete inhibition of growth)
# Description: Both Z. mobilis 8b and 8b knockout library cultures were revived from glycerol stocks in 20 mL MRMG0.75×0.25 (10 g/L yeast extract, 2 g/L KH2PO4 and 1 g/L MgSO4.7H2O, 7.5 g/L glucose and 2.5 g/L xylose) and also containing […] spectinomycin for 1.5 hours at 35° C., 125 rpm. Cells were centrifuged and resuspended to a final OD600 nm of 0.025 in a 100 mL culture, and grown for an additional 3-4 generations at 35° C. in 125 mL Erlenmeyer flasks with foam enclosures, 125 rpm (about 6 hours). Cells were initially screened on MRMGS (5% w/v glucose) plates containing 0, […], 5, or 7.5 g/L of furfural, equivalent to MICs of 0.75×, 1× or 1.5×. MIC 1× is the minimum (lowest) concentration of inhibitor needed for complete inhibition of growth (RMG2) over a 24-hour period. Approximately 500, 1000 and 2000 colonies were plated in triplicates. Furfural levels were also tested at 0.7, 1.5, 3 or 4 g/L in glucose.
smiles,measurement,value
O=Cc1ccco1 [furfural],MIC,5000 µg/mL
